{"source": "patent US6949522B2", "about": "“β-2′- or 3′-halonucleosides” (Pharmasset, Inc., priority 2001, dated 2005)", "key": {"β-actin gene": {"tested_on": "β-actin gene", "type": "cell-based, human", "settings": "human, 7 days, 10 μM", "experimental": "Low passage number HepG2 cells, obtained from American Tissue Culture Collection (ATCC, Manassas, Va.) were seeded at 5,000 cells/well in collagen-coated 96-well plates. Test compounds were added to the media to obtain a final concentration of 10 μM. On culture day 7, cellular nucleic acids were prepared by using commercially available columns (RNeasy 96 kit, Qiagen). […] The mitochondrial cytochrome C oxidase subunit II (COXII) gene and the β-actin or rRNA gene were amplified from 5 μL with a multiplex Q-PCR protocol using the suitable primers and probes for both target and reference (designed using the Primer Express software, Applied Biosystems); • for COXII. • sense primer 5′-[…]-3′ (Sequence 7); • probe 5′-TET-[…]-TAMRA-3′ (Sequence 8); and • antisense probe 5′-[…]-3′ (Sequence 9); • for exon 3 of β-actin (GenBank E01094): • sense primer 5′-[…]-3′ (Sequence 10); • probe 5′-6FAM-[…]-TAMRA-3′ (Sequnece 11); and • antisense probe 5′-[…]-3′ (Sequence 12).\nThe rRNA gene primers and probes were purchased from Applied Biosystems. Standard curves using 1-log diluted total HepG2 DNA were linear over more than 5 logs. In addition, efficiencies of target (COXII DNA) and reference (β-actin DNA or rRNA) amplification were approximately equal, because the slope of the ΔCt line (Ct β-actin minus Ct mitochondrial) was less than 0.1 (not shown). Since equal amplification efficiencies were obtained for both genes, the comparative cycle threshold (Ct) method was used to investigate potential inhibition of the mitochondrial DNA polymerase γ. The comparative Ct method uses arithmetic formulas in which the amount of target (COXII gene) is normalized to an endogenous reference (β-actin gene or rRNA gene) and is relative to a calibrator (no drug control at day 7). The arithmetic formula for this approach is given by 2-ΔΔCt (User bulletin # 2, Applied Biosystems).\nIn order to study the consequences of possible inhibitory effects of these compounds on host DNA polymerases, nuclear and rnitochondrial DNA levels were quantified and compared to no-treatment controls. Cells were incubated for 7 days with 10 μM of each compound, followed by total nucleic acid extractions and multiplex Q-PCR of the rRNA gene and the mitochondrial COXII gene. Nucleic acids from cells exposed to the control compounds were also amplified in multiplex for mitDNA and the β-actin gene. The results are presented in Table 4 using the comparative Ct method."}, "in vitro [1]": {"experiment": "in vitro", "type": "cell-based, human", "settings": "human", "summary_of_the_method": "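Test drug applied as ten-fold serial dilutions to CEM, Vero and PHA-stimulated human PBM cells, all uninfected. After incubation, MTT added overnight, formazan solubilized 5 h and read at 570 nm as a toxicity measure.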"}, "in vitro [2]": {"experiment": "in vitro", "type": "cell-based, African green monkey", "settings": "African green monkey, Cytotoxicity (IC50) Vero"}, "HIV-1LAI": {"tested_on": "HIV-1LAI", "settings": "human PBM cells; reported in Org. Lett. 2002; read-out: anti-HIV activity EC50; cited from earlier work"}, "HBV": {"tested_on": "HBV", "experiment": "HBV Q-PCR in the HepG2.2.15 cell system", "type": "cell-based, hepatitis B virus", "settings": "10 μM, HepG2.2.15 system"}}, "data": [{"smiles": "Cc1cn([C@H]2C[C@H](N=[N+]=[N-])[C@@H](CO)O2)c(=O)[nH]c1=O", "note": "[AZT, 3′-azido-3′-deoxythymidine, reference compound]", "values": [{"measurement": "Average ΔCt ± SD β-actin DNA", "setting": "β-actin gene", "result": "0.10 ± 0.38"}, {"measurement": "IC50 at 5 days", "setting": "in vitro [1]", "result": "> 100", "unit": "µM"}, {"measurement": "IC50 at 3 days", "setting": "in vitro [2]", "result": 28, "unit": "µM"}]}, {"smiles": "Nc1ccn([C@H]2S[C@@H](CO)C=C2F)c(=O)n1", "note": "[Compound L-17, (+)-1-[(1S,4R)-2,3-dideoxy-2,3-didehydro-2-fluoro-4-thio-β-L-ribofuranosyl]-cytosine]", "values": [{"measurement": "EC50", "setting": "HIV-1LAI", "result": 0.12, "unit": "µM"}]}, {"smiles": "Nc1ccn([C@@H]2CS[C@H](CO)O2)c(=O)n1", "note": "[Compound 3TC, (−)-β-2′,3′-dideoxy-3′-thiacytidine, reference compound]", "values": [{"measurement": "maximal reduction of HBV DNA", "setting": "HBV", "result": 0.6, "unit": "logs"}, {"measurement": "Average ΔCt ± SD β-actin DNA", "setting": "β-actin gene", "result": "0.11 ± 0.23"}]}]}
